In brackets after ≈: the same amount, converted by molar mass.
Assays:
Plasmodium falciparum [1] = test: Antimalarial activity against Plasmodium falciparum 3D7 infected in human erythrocytes; format: functional, organism-based; conditions: 3D7, Erythrocyte
HEK293 = test: Cytotoxicity against HEK293 cells incubated for 48 hrs by MTT assay; format: functional; conditions: Homo sapiens
Plasmodium falciparum [2] = test: Antimalarial activity against Chloroquine resistant blood stage Plasmodium falciparum clone W2; format: functional, organism-based
Plasmodium berghei [3] = test: In vivo antiplasmodial activity against Plasmodium berghei infected in Swiss mouse assessed as reduction of parasitaemia at 100 mg/kg, po for 3 days; format: functional; parameters: scale not given: the % may be the effect or the level left; conditions: time 3 day
Plasmodium falciparum [4] = test: Antimalarial activity against Plasmodium falciparum 3D7 measured after 24 hrs by hypoxanthine based scintillation counting analysis; format: functional; conditions: read-out: ED50 (the source's name)
Plasmodium falciparum [5] = test: Antiplasmodial activity against Chloroquine resistant Plasmodium falciparum FcB1 incubated for 48 hrs by SYBR green I based fluorescence assay; format: functional, organism-based; conditions: FcB1, 48 h
Plasmodium berghei [6] = test: In vivo plasmodial activity against Plasmodium berghei ANKA infected in Swiss mouse assessed as survival rate at 50 mg/kg, ip for 4 days after infection relative to control; format: functional; conditions: time 4 day
Plasmodium falciparum [7] = test: Antimalarial activity against chloroquine resistant Plasmodium falciparum K1 incubated for 72 hrs by SYBR green staining based fluorescence reader method; format: functional, organism-based; conditions: K1, 72 h
[8] = Cytotoxicity against African green monkey Vero cells; format: toxicity, cell-based; conditions: chlorocebus sabaeus
[9] = Selectivity index, ratio of CC50 for african green monkey Vero cells to IC50 for Chloroquine resistant Plasmodium falciparum K1; format: toxicity; conditions: read-out: Ratio CC50/IC50
Plasmodium falciparum [10] = test: Antimalarial activity against chloroquine […] Plasmodium falciparum 3D7 incubated for 72 hrs by SYBR green staining based fluorescence reader method; format: functional, organism-based; conditions: 3D7, 72 h
Plasmodium falciparum [11] = test: Antimalarial activity against multi-drug resistant Plasmodium falciparum K1; format: functional, organism-based
Plasmodium falciparum [12] = test: In vivo antimalarial activity against Plasmodium falciparum 3D70087/N9 infected in humanized mouse model assessed as reduction in parasitemia administered orally for 4 days measured on day 7 relative to control; format: functional; parameters: scale not given: the % may be the effect or the level left; conditions: route po; time 7 day
Plasmodium falciparum [13] = test: Antimalarial activity against drug resistant Plasmodium falciparum K1; format: functional, organism-based
Plasmodium falciparum [14] = test: Antimalarial activity against Plasmodium falciparum RKL-2 assessed as inhibition of malarial growth by measuring dead rings/schizonts at 50 ug/ml relative to control; format: functional
Plasmodium falciparum [15] = test: Antimalarial activity against Plasmodium falciparum 3D7 assessed as inhibition of malarial growth by measuring dead rings/schizonts at 50 ug/ml relative to control; format: functional
Plasmodium falciparum [16] = test: Antimalarial activity against Plasmodium falciparum 3D7; format: functional, organism-based
Plasmodium falciparum [17] = test: Antimalarial activity against Plasmodium falciparum RKL-2; format: functional, organism-based
Plasmodium falciparum [18] = test: Antimalarial activity against Plasmodium falciparum Dd2 by SYBR green method; format: functional, organism-based
Plasmodium falciparum [19] = test: Potency index, ratio of chloroquine IC50 to compound IC50 for antimalarial activity against Plasmodium falciparum Dd2; format: functional
Plasmodium berghei [20] = test: In vivo antiplasmodial activity against Plasmodium berghei ANKA infected in CD-1 mouse assessed as decrease in parasitaemia at 50 mg/kg, ip measured after 4 days relative to control; format: functional; parameters: scale not given: the % may be the effect or the level left; conditions: time 4 day
Plasmodium berghei [21] = test: In vivo antiplasmodial activity against Plasmodium berghei ANKA infected in CD-1 mouse assessed as decrease in parasitaemia at 50 mg/kg, ip measured after 7 days relative to control; format: functional; parameters: scale not given: the % may be the effect or the level left; conditions: time 7 day
Plasmodium falciparum [22] = test: Antimalarial activity against Plasmodium falciparum; format: functional, organism-based
Plasmodium falciparum [23] = test: Antimalarial activity against chloroquine sensitive Plasmodium falciparum RKL-2; format: functional, organism-based
Plasmodium falciparum [24] = test: Antimalarial activity against chloroquine resistant Plasmodium falciparum RKL-9; format: functional, organism-based
Plasmodium falciparum [25] = test: Antiplasmodial activity against Chloroquine resistant plasmodium falciparum FCR-3; format: functional, organism-based
[26] = Selectivity index, ratio of IC50 for human MDA-MB-231 cells to IC50 for Chloroquine resistant Plasmodium falciparum FCR-3; format: toxicity; conditions: read-out: Ratio IC50
Plasmodium falciparum [27] = test: Antiplasmodial activity against Plasmodium falciparum W2 assessed as inhibition of parasite growth after 48 hrs by pLDH assay; format: functional, organism-based; conditions: W2, 48 h
Plasmodium falciparum [28] = test: Antimalarial activity against Plasmodium falciparum D6; format: functional, organism-based
Plasmodium falciparum [29] = test: Antimalarial activity against Plasmodium falciparum W2; format: functional, organism-based
Plasmodium falciparum [30] = test: Antimalarial activity against Plasmodium falciparum TM91C235; format: functional, organism-based
Plasmodium falciparum [31] = test: Antimalarial activity against Plasmodium falciparum TM90C2B (2007); format: functional, organism-based
Plasmodium falciparum [32] = test: Antimalarial activity against Plasmodium falciparum TM90C2B (1995); format: functional, organism-based
Plasmodium berghei [33] = test: Antimalarial activity against Plasmodium berghei; format: functional, organism-based
Plasmodium falciparum [34] = test: Antimalarial activity against chloroquine sensitive Plasmodium falciparum RKL-2 by Giemsa staining method; format: functional, organism-based
Plasmodium falciparum [35] = test: Antimalarial activity against chloroquine resistant Plasmodium falciparum RKL-9 by Giemsa staining method; format: functional, organism-based
Plasmodium falciparum [36] = test: Antimalarial activity against Plasmodium falciparum 3D7 by H-hypoxanthine incorporation based assay; format: functional, organism-based
Plasmodium falciparum [37] = test: Antimalarial activity against Plasmodium falciparum Dd2 by H-hypoxanthine incorporation based assay; format: functional, organism-based
Plasmodium falciparum [38] = test: Antiplasmodial activity against Plasmodium falciparum K1; format: functional, organism-based
Plasmodium berghei [39] = test: In vivo antiplasmodial activity against Plasmodium berghei infected in mouse assessed as reduction of parasitaemia at 50 mg/kg/day, ip for 4 days relative to control; format: functional; parameters: scale not given: the % may be the effect or the level left; conditions: time 4 day
Plasmodium berghei [40] = test: In vivo antiplasmodial activity against Plasmodium berghei infected in mouse assessed as increase in mean survival time at 50 mg/kg/day, ip for 4 days (reference value: 4 to 6 days); format: functional; conditions: time 4 day
Plasmodium berghei [41] = test: In vivo antiplasmodial activity against Plasmodium berghei infected in mouse assessed as reduction of parasitaemia at 100 mg/kg/day, po for 4 days relative to control; format: functional; parameters: scale not given: the % may be the effect or the level left; conditions: time 4 day
Plasmodium falciparum [42] = test: Antimalarial activity against Plasmodium falciparum W2 by 96-well microtitre plate method based scintillation counting analysis; format: functional, organism-based
Plasmodium falciparum [43] = test: Antimalarial activity against Plasmodium falciparum by 96-well microtitre plate method based scintillation counting analysis; format: functional, organism-based
Plasmodium falciparum [44] = test: Antiplasmodial activity against Plasmodium falciparum 3D7 infected in human erythrocytes assessed as growth inhibition; format: functional, organism-based; conditions: 3D7, Erythrocyte
Plasmodium falciparum [45] = test: Antimalarial activity against Plasmodium falciparum NF54 by 96-well microtitre plate method based scintillation counting analysis; format: functional, organism-based

SMILES: O=C1C(O)=C(Cc2ccccc2)C(=O)c2ccccc21
- IC50 (Plasmodium falciparum [1]): 443 nM
- CC50 (HEK293): 54600 nM

SMILES: O=C1C(O)=C(CN2CC3CCC2CC3)C(=O)c2ccccc21
- IC50 (Plasmodium falciparum [2]): 1300 nM
- Activity (Plasmodium berghei [3]): <=63%

SMILES: CCCN(CCC)CC1=C(O)C(=O)c2ccccc2C1=O
- IC50 (Plasmodium falciparum [2]): 1900 nM
- Activity (Plasmodium berghei [3]): <=63%

SMILES: Cc1cc(O)c2c(c1)C(O)(c1ccc3c(c1O)C(=O)c1c(O)cc(C)c(O)c1C3=O)c1cccc(O)c1C2=O (configuration not stated)
- EC50 (Plasmodium falciparum [4]): 0.537 µg/mL (≈ 1.02 µM)

SMILES: COc1ccc2c(c1)C(=O)C(=O)C1=C2OC(C)C1(C)C (configuration not stated)
- IC50 (Plasmodium falciparum [5]): 845 nM
- Activity (Plasmodium berghei [6]): 100%

SMILES: Cc1cc(O)c2c(c1)C(=O)c1cc(O)c(CN3CCCCC3)c(O)c1C2=O
- IC50 (Plasmodium falciparum [7]): 2280 nM
- CC50 [8]: 782000 nM
- selectivity ratio [9]: 315
- IC50 (Plasmodium falciparum [10]): 2740 nM

SMILES: CSC1=CC2=C(C(=O)c3ccc([C@H]4C[C@@H](O)[C@H](O)[C@@H](C)O4)c(O)c3C2=O)[C@@]2(O)C(=O)C[C@](C)(O)C[C@@]12O
- IC50 (Plasmodium falciparum [11]): 0.0534 µg/mL (≈ 0.1 µM)

SMILES: Cc1n(C(C)C)c2c([n+]1C(C)C)C(=O)c1ccccc1C2=O.[Br-]
- Activity (Plasmodium falciparum [12]): 90%

SMILES: CCCn1c2c([n+](C(C)C)c1C)C(=O)c1ccccc1C2=O
- IC50 (Plasmodium falciparum [13]): 3.2 nM

SMILES: O=C1C(O)=C(C(c2ccccc2O)N2CCCC2)C(=O)c2ccccc21 (configuration not stated)
- inhibition at 50 µg/mL (Plasmodium falciparum [14]): 70%
- inhibition at 50 µg/mL (Plasmodium falciparum [15]): 72.5%
- IC50 (Plasmodium falciparum [16]): 0.411 µg/mL
- IC50 (Plasmodium falciparum [17]): 1.17 µg/mL

SMILES: CC1=C(Cc2ccc(NC(=O)OC(C)(C)C)cc2)C(=O)c2ccccc2C1=O
- IC50 (Plasmodium falciparum [18]): 42 nM
- Ratio IC50 (Plasmodium falciparum [19]): 3
- Activity (Plasmodium berghei [20]): 75.5%
- Activity (Plasmodium berghei [21]): 81.8%

SMILES: O=C1C(O)=C(C(Nc2cccc([N+](=O)[O-])c2)c2ccc([N+](=O)[O-])cc2)C(=O)c2ccccc21 (configuration not stated)
- inhibition at 50 µg/mL (Plasmodium falciparum [14]): 70%
- inhibition at 50 µg/mL (Plasmodium falciparum [15]): 72.5%
- IC50 (Plasmodium falciparum [16]): 475 nM
- IC50 (Plasmodium falciparum [17]): 1390 nM

SMILES: Cc1oc2c(c1C(=O)NC(CCC(N)=O)C(=O)O)C(=O)c1ccccc1C2=O (configuration not stated)
- IC50 (Plasmodium falciparum [22]): 2000 nM

SMILES: O=C1C(O)=C(Nc2ccc(O)c(CN3CCOCC3)c2)C(=O)c2ccccc21
- IC50 (Plasmodium falciparum [23]): 0.391 µg/mL (≈ 1.03 µM)
- IC50 (Plasmodium falciparum [24]): 0.993 µg/mL (≈ 2.61 µM)

SMILES: CC(C)=CCC/C(=C/CC/C(C)=C/CCc1ccc2c(c1)C(=O)C=C(C)C2=O)C(=O)O
- IC50 (Plasmodium falciparum [25]): 5400 nM
- selectivity ratio [26]: 443

SMILES: O=C1c2ccccc2C(=O)c2oc(Cc3ccccc3)cc21
- IC50 (Plasmodium falciparum [27]): 1500 nM

SMILES: CCCCCC[C@H](C)CC1=C(O)C(=O)c2c(C)cccc2C1=O
- IC50 (Plasmodium falciparum [28]): 73 nM
- IC50 (Plasmodium falciparum [29]): 191 nM
- IC50 (Plasmodium falciparum [30]): 229 nM
- IC50 (Plasmodium falciparum [31]): 193 nM
- IC50 (Plasmodium falciparum [32]): 234 nM
- IC50 (Plasmodium berghei [33]): 246 nM

SMILES: O=C1C(O)=C(NCCNc2ccnc3cc(Cl)ccc23)C(=O)c2ccccc21
- IC50 (Plasmodium falciparum [34]): 0.391 µg/mL (≈ 0.993 µM)
- IC50 (Plasmodium falciparum [35]): 0.684 µg/mL (≈ 1.74 µM)

SMILES: CCCNCc1cc(NC2=C(O)C(=O)c3ccccc3C2=O)ccc1O
- IC50 (Plasmodium falciparum [23]): 0.453 µg/mL (≈ 1.29 µM)
- IC50 (Plasmodium falciparum [24]): 2.92 µg/mL (≈ 8.29 µM)

SMILES: CC1=C(Cc2ccncc2)C(=O)c2ccccc2C1=O
- IC50 (Plasmodium falciparum [36]): 67 nM
- IC50 (Plasmodium falciparum [37]): 69 nM

SMILES: O=C(O)c1cc2c(o1)C(=O)C1=C(C2=O)S(=O)(=O)C=CN1
- IC50 (Plasmodium falciparum [38]): 120 nM
- Activity (Plasmodium berghei [39]): 85.7%
- Time (Plasmodium berghei [40]): 9 days
- Activity (Plasmodium berghei [41]): 47%

SMILES: CNCCCCNCCCNC(=O)c1c(C)oc2c1C(=O)c1ccccc1C2=O
- IC50 (Plasmodium falciparum [22]): 50 nM

SMILES: O=C1C(O)=C([C@H]2CC[C@H](c3ccc(Cl)cc3)CC2)C(=O)c2ccccc21 [ATOVAQUONE]
- IC50 (Plasmodium falciparum [28]): 0.34 nM
- IC50 (Plasmodium falciparum [29]): 1 nM
- IC50 (Plasmodium berghei [33]): 19.7 nM
- CC50 (HEK293): 49 nM

SMILES: CCN(CC)CCCC(C)Nc1ccnc2cc(Cl)ccc12 (configuration not stated) [CHLOROQUINE]
- CC50 [8]: 227000 nM
- Activity (Plasmodium berghei [20]): 86.3%
- Activity (Plasmodium berghei [21]): 76.8%

SMILES: C=C(C)C1CC2=C(O1)C(=O)c1ccccc1C2=O (stereo not drawn) [DEHYDROISO-ALPHA-LAPACHONE]
- IC50 (Plasmodium falciparum [42]): 7.53 µg/mL (≈ 31.3 µM)

SMILES: Cc1cc(O)c2c(c1)C(=O)C(c1c(C)cc3c(c1O)C(=O)C=CC3=O)=CC2=O [DIOSPYRIN]
- IC50 (Plasmodium falciparum [43]): 3.29 µg/mL (≈ 8.79 µM)

SMILES: COC1=C2C[C@@H](C)C[C@H](OC)[C@H](O)[C@@H](C)/C=C(\C)[C@H](OC(N)=O)[C@@H](OC)/C=C\C=C(/C)C(=O)NC(=CC1=O)C2=O [GELDANAMYCIN]
- IC50 (Plasmodium falciparum [44]): 20 nM

SMILES: COc1cc(O)c(-c2c(C)cc(O)c3c2C(=O)c2cccc(O)c2C3=O)c(O)c1C(C)=O [KNIPHOLONE]
- IC50 (Plasmodium falciparum [45]): 1700 nM

Source: ChEMBL document CHEMBL5113376, “Antimalarial application of quinones: A recent update” (Eur J Med Chem, 2021)
